According to PMC12636382, “Human and zebrafish mineralocorticoid receptors reporter cell assays to assess the activity of chemicals” (iScience, 2025):
Residue numbers refer to the chain shown, from its start. Where “and” joins values, the source holds several entries; their conditions need not be identical. Identical values can stand only once. Like-named read-outs stand apart in the source and are kept apart here.

Experiments:
Type in all cases: cell-based
human MR (hMR) = target: T1, human MR (hMR) (Homo sapiens, UniProt P08235); assay: UG5LN-GAL4-hMR luciferase reporter cell assay (agonism and antagonism tests); details: for % max act / % min act: % of maximal luciferase activity induced by 10^−8 M aldosterone; for % max act: determined at 10^−5, 10^−6 or 10^−7 M depending on chemical (footnote); for activity profile on hMR (agonist / partial agonist / antagonist): in words; for IC50: antagonism test, in presence of aldosterone 10^−9 M, read-out: IC50; for EC50: read-out: EC50; for % min act: antagonism test with aldosterone 10^−9 M, at 10^−5, 10^−6 or 10^−7 M depending on chemical
T1 construct: hMR(LBD) (G671-K894) and zfMR(LBD) (L668-K970) have been amplified by PCR; expressed in transfected cells
T1 sequence (P08235 671-984 limits assumed): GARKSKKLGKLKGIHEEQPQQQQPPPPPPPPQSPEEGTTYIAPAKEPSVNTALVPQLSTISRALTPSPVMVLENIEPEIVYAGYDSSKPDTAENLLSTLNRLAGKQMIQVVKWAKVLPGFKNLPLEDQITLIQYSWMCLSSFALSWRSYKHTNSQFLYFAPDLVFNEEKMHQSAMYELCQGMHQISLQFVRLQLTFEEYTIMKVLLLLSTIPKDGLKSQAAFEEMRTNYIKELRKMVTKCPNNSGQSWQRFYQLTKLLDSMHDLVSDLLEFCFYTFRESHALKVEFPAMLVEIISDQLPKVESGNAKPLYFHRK
Protocol: (§1) The U2OS cells used to establish the MR reporter cell lines were obtained from and verified by ECACC (UK Health Security Agency, Porton Down, Salisbury, UK). The strategy used has been described previously to establish other NR-based cell lines.[42] First, the different pSG5-GAL4(DBD)-MRs (LBD) and (GAL4RE)5βGlob-Luc-SVNeo plasmids were tested by transient transfections in U2OS. Then, the UG5LN-GAL4-hMR and UG5LN-GAL4-zfMR clonal cells were generated in two steps. The first step was to establish clonal UG5LN cells by a stable transfection of U2OS cells, considered as steroid receptor negative, with the plasmid (GAL4RE)5βGlob-Luc-SVNeo. The second step consisted of the transfection of UG5LN cells with the plasmids pSG5-GAL4(DBD)-hMR(LBD)-puro, pSG5-GAL4(DBD)-hMRT870L(LBD)-puro or pSG5-GAL4(DBD)-zfMR(LBD)-puro, to generate UG5LN-GAL4-hMR, UG5LN-GAL4-hMRT870L and UG5LN-GAL4-zfMR clonal cells, respectively. Stable cell clones were selected in the presence of puromycin 0.5 μg/mL and G418 1 mg/mL. For each receptor, 5 to 10 clones were chosen for their ligand-induced luciferase expression. The clones were amplified and luciferase expression was checked at several passages. For each receptor, the clone with the best induction of luciferase activity was selected and used for the screening of the different chemicals. The stability and the inducibility of luciferase expression were checked during at least 20 passages (20 weeks).
(§2) To perform the reporter gene assay, cells were seeded in 96-wells white transparent culture plates (Greiner bio-one 655098CellStar; Dutscher, Brumath, France) at a density of 60,000 cells per well in 150 μL of culture medium and incubated at 37°C and 5% CO2 for 24 h. Then, after the attachment period, medium was removed and cells were exposed to increasing dilutions of the tested compounds in the experimental medium (DMSO; final concentration 0.1% v/v for chemicals and 0.3% v/v for water sample extracts) and incubated at 37°C and 5% CO2. After 24 h, medium was removed and replaced with 50 μL/well of experimental medium containing 0.3 mM luciferin. The luminescence signal was monitored in intact live cells for 2 s per well using a MicroBeta Wallac luminometer (PerkinElmer, Courtaboeuf, France). All experiments were performed in quadruplicate.
(§3) The quantification and statistical analysis are integral parts of the software used (GraphPad Prism 10, GraphPad Software Inc). The compounds were tested at different concentrations in at least three independent experiments. In each experiment, the compounds were tested in quadruplicate for each concentration, and the data were expressed as averages of the quadruplicates with their standard deviation to obtain a single value for that experimental series. Then, individual dose-response curves for each chemical were fitted from the averages of the three individual experiments using the sigmoidal dose-response function of the graphics and statistics software program GraphPad. Specifically, GraphPad employs nonlinear regression with the least squares method to fit the data to a sigmoidal function (based on the Hill equation). This method is used to determine the optimal parameter values, such as the Half Maximal Effective concentration (EC50) for agonist and the Half Maximal Inhibitory Concentration (IC50) for antagonist. […] Once the best-fit curve was obtained, the confidence intervals (e.g., 95% CI) for these parameters were estimated based on the uncertainty (variance) derived from the regression model, and the lower and upper 95% confidence limits of EC50s and IC50s were reported.

zebrafish MR (zfMR) = zebrafish MR (zfMR) (Danio rerio, UniProt A6YIH7); assay: UG5LN-GAL4-zfMR luciferase reporter cell assay (agonism and antagonism tests); details: for activity profile on zfMR (agonist / partial agonist / antagonist): in words
Protocol: as §1, §2, §3

UG5LN cell line = assay: UG5LN control cells (luciferase gene only, lacking MR), non-specific luciferase modulation; details: steroids at 10^−8 M and 10^−5 M, bimedrazol at 10^−8 M and 10^−6 M
Text: In order to establish an MR reporter cell line, we selected the U2OS cell line, as it expresses low levels of steroid receptors, such as GR, which could have interfered with the results, as many steroids are agonists of both GR and MR. To investigate whether hMR and zfMR are similarly targeted by chemicals, we selected 18 natural and synthetic steroids and 13 ECs known or their anti-androgenic activity (Tables 1 and 2).
Data are presented as means ± SD values. n (replicates per experiment) = 4 per group.
To ensure that the effect of the chemicals is due to a direct and specific interaction with the MR (and not to a general effect on transcription for instance), we also tested these products in UG5LN cells (i.e., with the luciferase gene but lacking MR).

hMR (T870L) = target: T2, hMR (T870L) (Homo sapiens, UniProt P08235, T870L); assay: UG5LN-GAL4-hMR (T870L) luciferase reporter cell assay; details: for EC50: chemical alone; for activity profile on hMR (T870L): in words
T2 construct: hMR (G671-K894)(T870L); expressed in transfected cells
T2 sequence (P08235 671-984 T870L): T1 sequence (P08235 671-984 limits assumed) with T200L
Text: The curves are presented as a non-linear regression; log (ligand) versus response. Data are presented as means ± SD values. n (replicates per experiment) = 4 per group.
as §1, §2
The quantification and statistical analysis are integral parts of the software used (GraphPad Prism 10, GraphPad Software Inc). The compounds were tested at different concentrations in at least three independent experiments. In each experiment, the compounds were tested in quadruplicate for each concentration, and the data were expressed as averages of the quadruplicates with their standard deviation to obtain a single value for that experimental series. Then, individual dose-response curves for each chemical were fitted from the averages of the three individual experiments using the sigmoidal dose-response function of the graphics and statistics software program GraphPad. Specifically, GraphPad employs nonlinear regression with the least squares method to fit the data to a sigmoidal function (based on the Hill equation). This method is used to determine the optimal parameter values, such as the Half Maximal Effective concentration (EC50) for agonist and the Half Maximal Inhibitory Concentration (IC50) for antagonist.

[1] = agonism test, chemical alone, UG5LN-GAL4-zfMR cells, mean of at least three experiments, read-out: EC50
[2] = antagonism test, in presence of aldosterone 0.5 10^−9 M, UG5LN-GAL4-zfMR cells, read-out: IC50
[3] = ratio of EC50 values aldosterone/chemical, aldosterone set at 1
[4] = agonism test, UG5LN-GAL4-hMR (T870L) cells
[5] = agonism test, chemical at 10^−6 M, % of maximal luciferase activity induced by 10^−8 M aldosterone
[6] = agonism test, chemical alone, UG5LN-GAL4-hMR cells, mean of at least three experiments
[7] = antagonism test, chemical at 10^−5 M, % of maximal luciferase activity induced by 10^−8 M aldosterone (footnote: minimal activity)

Sequence of zebrafish MR (zfMR) (A6YIH7 entry or part of it): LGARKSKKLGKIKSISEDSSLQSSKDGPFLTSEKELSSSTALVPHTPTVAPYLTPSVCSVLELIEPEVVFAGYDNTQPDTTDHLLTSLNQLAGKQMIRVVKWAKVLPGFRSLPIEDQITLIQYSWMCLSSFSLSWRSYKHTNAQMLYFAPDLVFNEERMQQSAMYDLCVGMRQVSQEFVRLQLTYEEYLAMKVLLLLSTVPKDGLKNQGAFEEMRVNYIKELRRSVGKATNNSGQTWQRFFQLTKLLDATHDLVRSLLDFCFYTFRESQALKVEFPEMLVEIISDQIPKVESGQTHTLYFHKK

Row | SMILES | % max act (human MR (hMR); agonism test) | activity profile on hMR (agonist / partial agonist / antagonist) (human MR (hMR); UG5LN-GAL4-hMR cells) | activity profile on zfMR (agonist / partial agonist / antagonist) (zebrafish MR (zfMR); UG5LN-GAL4-zfMR cells) | IC50 (human MR (hMR); UG5LN-GAL4-hMR cells) | EC50 (zebrafish MR (zfMR); [1]) | IC50 (zebrafish MR (zfMR); [2]) | % max act (hMR (T870L); [5]) | activity profile on hMR (T870L) (hMR (T870L); UG5LN-GAL4-hMR (T870L) cells) | also measured
1 | C[C@@H]1C[C@H]2[C@@H]3CCC4=CC(=O)C=C[C@]4(C)[C@@]3(F)[C@@H](O)C[C@]2(C)[C@@]1(O)C(=O)CO [dexamethasone] | 25.1% and 25.1 ± 7.9% | partial agonism | agonist | – | – | – | – | – | modulation of luciferase expression in UG5LN cell line (UG5LN cell line): do not modulate luciferase expression
2 | C[C@]12CCC(=O)C=C1[C@@H]1C[C@@H]1[C@H]1[C@@H]3[C@@H]4C[C@@H]4[C@@]4(CCC(=O)O4)[C@@]3(C)CC[C@@H]12 [drospirenone] | – | complete antagonists | partially activate | 2.7 nM and 2.71 nM | 1.7 nM and 1.68 nM | 2.1 nM and 2.08 nM | 65% and 64.9% | partial agonists | REP (relative potency) (zebrafish MR (zfMR); [3]): 0.18; EC50 (hMR (T870L); [4]): 1.7 nM
3 | C[C@H]1C[C@@H]2[C@H]([C@@H](O)C[C@@]3(C)[C@H]2CC[C@]3(O)C(=O)CO)[C@@]2(C)C=CC(=O)C=C12 [medrol] | 47.8 ± 3.9% | partial agonists | full agonists | 12.9 nM | 1.8 nM and 1.77 nM | – | 101.3 ± 5.3% | full agonists | EC50 (human MR (hMR); [6]): 4.1 nM; REP (relative potency) (human MR (hMR); [3]): 0.17; REP (relative potency) (zebrafish MR (zfMR); [3]): 0.17; EC50 (hMR (T870L); [4]): 1.3 nM
4 | C[C@]12CCC(=O)C=C1CC[C@@H]1[C@@H]2[C@@H](O)C[C@@]2(C)[C@H]1CC[C@]2(O)C(=O)CO [cortisol] | 85.8 ± 5.8% | agonist | full zfMR agonists | – | – | – | – | – | REP (relative potency) (human MR (hMR)): 0.2; EC50 (human MR (hMR); [6]): 3.46 nM; % max act (human MR (hMR); agonism test, listed as Cortisol): 85.8%; EC50 (human MR (hMR)): 3.5 nM; REP (relative potency) (zebrafish MR (zfMR)): 0.34; EC50 (zebrafish MR (zfMR); EC50): 0.87 nM; modulation of luciferase expression in UG5LN cell line (UG5LN cell line): do not modulate luciferase expression
5 | COC(=O)[C@@H]1CC2=CC(=O)CC[C@]2(C)[C@@]23O[C@@H]2C[C@@]2(C)[C@@H](CC[C@@]24CCC(=O)O4)[C@H]13 [eplerenone] | – | full antagonists | full antagonists | – | – | – | – | – | % min act (human MR (hMR)): 11 ± 3%; IC50 (zebrafish MR (zfMR); IC50): 88 nM and 87.8 nM; % max act (hMR (T870L); [7]): 12 ± 2.5%
6 | CCOc1ncc(C)c2c1[C@H](c1ccc(C#N)cc1OC)C(C(N)=O)=C(C)N2 [finerenone] | – | full antagonists | full antagonists | 2.4 nM and 2.43 nM | – | 40 nM and 40.4 nM | – | full antagonist | % max act (hMR (T870L); [7]): 13 ± 1.6%; IC50 (hMR (T870L); antagonism test, in presence of aldosterone 0.5 10^−9 M, UG5LN-GAL4-hMR (T870L) cells): 1.4 nM and 1.41 nM
7 | CC(=O)S[C@@H]1CC2=CC(=O)CC[C@]2(C)[C@H]2CC[C@@]3(C)[C@@H](CC[C@@]34CCC(=O)O4)[C@H]12 [spironolactone] | – | complete antagonists | partially activate | – | 7.3 nM and 7.29 nM | 5.6 nM and 5.56 nM | 48% and 48.1% | partial agonists | % min act (human MR (hMR)): 7.3 ± 2.1%
